This passage reports IC50 results from ChEMBL document CHEMBL3046285, “Design and synthesis of new 1,2-diaryl-4,5,6,7-tetrahydro-1H-benzo[d] imidazoles as selective cyclooxygenase (COX-2) inhibitors” (Med Chem Res, 2012).

The target in this test is T1, Prostaglandin G/H synthase 1 (Ovis aries, UniProt P05979).
T1 sequence (P05979 whole entry): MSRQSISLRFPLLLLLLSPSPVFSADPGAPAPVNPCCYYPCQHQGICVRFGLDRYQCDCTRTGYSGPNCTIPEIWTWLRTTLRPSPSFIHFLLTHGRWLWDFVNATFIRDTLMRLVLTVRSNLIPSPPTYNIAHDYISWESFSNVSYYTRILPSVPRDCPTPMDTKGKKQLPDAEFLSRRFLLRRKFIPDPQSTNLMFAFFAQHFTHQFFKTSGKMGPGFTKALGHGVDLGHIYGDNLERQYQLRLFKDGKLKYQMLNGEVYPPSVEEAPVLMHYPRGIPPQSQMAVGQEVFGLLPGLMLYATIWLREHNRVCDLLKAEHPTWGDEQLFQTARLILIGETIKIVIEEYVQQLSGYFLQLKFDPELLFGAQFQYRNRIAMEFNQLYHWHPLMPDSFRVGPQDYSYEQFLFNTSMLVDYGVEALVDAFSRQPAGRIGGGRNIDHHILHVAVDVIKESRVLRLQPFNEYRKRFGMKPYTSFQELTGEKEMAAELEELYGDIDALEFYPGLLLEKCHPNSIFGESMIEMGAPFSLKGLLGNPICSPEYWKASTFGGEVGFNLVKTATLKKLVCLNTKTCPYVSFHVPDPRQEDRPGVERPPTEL
Nature of the test: Inhibition of Ovis aries (sheep) COX1 using arachidonic acid as substrate using cyclic naphthalene hydrazide by chemiluminescence assay.

The structures appear in SMILES notation.

Usually IC50 stands for the concentration that gives 50% inhibition. Higher therefore signals lower potency.

On to `CS(=O)(=O)c1ccc(-c2nc3c(n2-c2ccccc2)CCCC3)cc1`, for which the IC50 worked out at 56.5 µM.
Then `CS(=O)(=O)c1ccc(-c2nc3c(n2-c2ccc(F)cc2)CCCC3)cc1`, with 55.7 µM; and `CS(=O)(=O)c1ccc(-c2nc3c(n2-c2ccc(Cl)cc2)CCCC3)cc1`, with 61.6 µM; and `Cc1ccc(-n2c(-c3ccc(S(C)(=O)=O)cc3)nc3c2CCCC3)cc1`, with 40.1 µM.
Then `COc1ccc(-n2c(-c3ccc(S(C)(=O)=O)cc3)nc3c2CCCC3)cc1`, with 42.2 µM; and `CC(=O)Nc1ccc(-n2c(-c3ccc(S(C)(=O)=O)cc3)nc3c2CCCC3)cc1`, with 36.1 µM.
